Test results: US6713506B2, “Tea polyphenol esters and analogs thereof for cancer prevention and treatment” (University of South Florida, priority 2000, dated 2004)

Experiments:
[1] = test system: p27 and IκB-α in LNCaP cells; test: Western blot of proteasome substrates in LNCaP cells; type: cell-based, human; conditions: 1 or 10 μM, 12 h
Procedure: FIG. 5. Western blot analysis. A, Jurkat T cells are treated with 1 or 10 μM of EGCG or EGC for 12 h, or B, C, 25 μM of EGCG for various times, followed by Western blot assay using specific antibodies to p27, IκB-α, ubiquitin or actin, as indicated. MWs of IκB-α and actin are 40 and 43 kDa, respectively. The band of 56 kDa, indicated by an arrow in (B), is an ubiquitinated or phosphorylated form of IκB-α. The bands indicated in (C) are ubiquitin-containing proteins. D, LNCaP cells are treated with 1 or 10 μM of EGCG for 12 h. Western bot is performed as described above. E, F, Jurkat T cells are pretreated with 10 μg/ml cycloheximide for 2 hr, followed by co-incubation with 1 or 10 μM of EGCG for 8 or 12 hr as indicated. The p70 is a putative ubiquitinated p27-containing complex (An et al., 1998, Cell Death Differ 5: 1062-75).
Western blot analysis—Western blot assay is performed as described previously (An et al., (1998) Cell Death Differ 5(12), 1062-75) using specific antibodies to p27^Kip (monoclonal; Pharmingen), IκB-α (polyclonal; Santa Cruz), ubiquitin (polyclonal; Sigma) or actin (polyclonal; Santa Cruz). In brief, Jurkat T or LNCaP cells are treated with EGCG or EGC in dose-response or time-dependent manner. Cells are harvested and lysated using the whole lysis buffer. […] Immunocomplexes are detected using the ECL detection reagents kit (Amersham, Piscataway, N.J.).

[2] = test system: SV-40-transformed WI-38 cells (VA-13); test: Cell cycle analysis by flow cytometry, VA-13 cells; type: cell-based, human; conditions: VA-13, 10 μM
Procedure: (§1) FIG. 6. Cell cycle analysis. Asynchronous Jurkat, LNCaP, WI-38, and VA-13 cells are treated with 10 μM EGCG and harvested at the time points indicated. Cells are prepared and analyzed by flow cytometry as described in the The Materials and Methods section of Example 1. Growth arrest is determined by the increase in the percentage of G1 population.
(§2) Cell cycle analysis—Cell cycle analysis based on DNA content is performed as follows. Cells are harvested, counted and washed twice with PBS. Cells (5×10^6 ) are then suspended in 0.5 ml PBS, pipetted and fixed in 5 ml of 70% ethanol for at least 2 h at −20° C. Cells are centrifuged, resuspended in 1 ml of propidium iodide staining solution (50 μg propidium iodide, 100 units RNase A and 1 mg glucose per ml PBS) and incubated at room temperature for 30 min. The cells are then analyzed with FACScan (Becton Dickinson Immunocytometry, CA.), ModFit LT and WinMDI V.2.8 cell cycle analysis software (Verity Software, Topsham, Me.). The cell cycle distribution is shown as the percentage of cells containing G1, S, G2, and M DNA judged by propidium iodide staining.

normal human WI-38 cells = test: Cell cycle analysis by flow cytometry, WI-38 cells; type: cell-based; conditions: WI-38, 10 μM
Procedure: as §1, §2

[3] = test system: LNCaP prostate cancer cells; test: Cell cycle analysis by flow cytometry, LNCaP cells; type: cell-based, human; conditions: 10 μM, 36 h
Procedure: as §1, §2

[4] = biological target: T1, proteasomal PGPH activity in Jurkat T cell extract (Homo sapiens, UniProt P28072); test: Proteasome PGPH activity in Jurkat T cell free extract; type: biochemical; conditions: EGCG 10 μM
T1 construct: endogenous in cells; host or cells: Jurkat T cell whole cell extract
Procedure: Inhibition of the proteasome activity with cell free extracts by tea polyphenols—The whole cell extract (3.5 μg) from Jurkat T cells is incubated for 90 min at 37° C. with 20 μM of a fluorogenic peptide substrate, Suc-Leu-Leu-Val-Tyr-AMC (for the chymotrypsin-like activity), Z-Leu-Leu-Glu-AMC [peptidyl-glutamyl peptide-hydrolyzing (PGPH) activity; Calbiochem], and Z-Gly-Gly-Arg-AMC (for the trypsin-like activity; Bachem), in 100 μl of the assay buffer with or without 10 μM EGCG or EGC. The hydrolyzed AMCs are quantified as described above.

[5] = biological target: T2, trypsin-like activity in living Jurkat T cells (Homo sapiens, UniProt Q99436); test: Proteasome trypsin-like activity in living Jurkat T cells; type: cell-based
T2 construct: endogenous in cells; host or cells: Jurkat T cells (whole cell extract or intact cells)
Procedure: Inhibition of the proteasome activity in living cells by tea polyphenols—To measure inhibition of the chymotrypsin-like activity in living tumor cells, Jurkat T (1×10^5 cells/ml/well), MCF7 or PC-3 cells (1×10^4 cells/ml/well) are cultured in 24-well plates. These cells are first incubated for 12 h with various concentrations of EGCG, EGC, β-lactone or LLnL, followed by an additional 2 h-incubation with fluorogenic peptide substrates, Suc-Leu-Leu-Val-Tyr-AMC for the chymotrypsin-like activity and Z-Gly-Gly-Arg-AMC for the trypsin-like activity. After that, cell medium (200 μl per sample) is collected and used for measurement of free AMCs.

O=C(O[C@@H]1Cc2c(O)cc(O)cc2O[C@@H]1c1cc(O)c(O)c(O)c1)c1cc(O)c(O)c(O)c1 [EGCG, (−)-epigallocatechin-3-gallate]
p27 and IκB protein expression [1]: accumulated | increase in G1 population ([2]; 12 h): 21% | increase in G1 population ([2]; 36 h): 33% | decrease in G1 population (normal human WI-38 cells; 12 h): 22% | increase in G2/M population (normal human WI-38 cells; 12 h): 6% | increase in S population (normal human WI-38 cells; 12 h): 16% | increase in G1 population (normal human WI-38 cells; 36 h): 22% | increase in G1 population [3]: ~25% | inhibition of proteasomal PGPH activity (in words) [4]: potently inhibits | inhibition of trypsin-like activity in living Jurkat T cells (in words) [5]: does not significantly inhibit
